Data taken from patent publication US20250296922A1, “POLYSUBSTITUTED PYRROLIDINE DERIVATIVE, PREPARATION METHOD THEREFOR AND USE THEREOF” (SHANGHAI WENNAI THERAPEUTICS CO LTD, priority 2023, published 2025).
Where two headings read alike, the source gives them in different places.

Columns and labels:
CYP1A2 = CYP1A2 (Homo sapiens (Human), UniProt P05177); experiment: Human liver microsomal CYP inhibition test, CYP1A2; assay type: in vitro ADME
Protocol: (§1) 3.1 Buffer solutions: (1) potassium phosphate 100 mM; (2) magnesium chloride, 33 mM;
(§2) 3.2.3 Reservoir for compounds to be tested: Dissolving the compounds to be tested in DMSO to form a 10 mM DMSO solution.
(§3) 3.4.1 Preparation of human liver microsomal working solution (1.27×) (final concentration: 0.2 mg/mL)
(§4) 3.5.3 Adding 20 μL of substrate solution to the appropriate wells and 20 μL of potassium phosphate buffer to the blank wells;
(§5) 3.5.4 Adding 2 μL of different concentrations of target compounds (final concentrations from 0.05 μM to 50 μM, 7 concentrations in total) or standard inhibitors to each well, with 2 μL of methanol solution in the non-inhibitor and blank wells;
(§6) 3.5.5 Adding 1.012 mL of liver microsomes to 78.988 mL of potassium phosphate buffer, then adding 158 μL of liver microsomes solution to all wells; preheating the well plate for 10 minutes in a 37° C. water bath;
(§7) 3.5.6 Weighing 129.1 mg NADPH (purchased from SyncoZymes Co. Ltd.) and adding to 15.0 mL of 33 Mm MgCl2 solution to give a 10 mM concentration, adding 20 μL to each well;
(§8) 3.5.7 Mixing and incubating the well plate in a 37° C. water bath for 10 minutes, then adding 400 μL of cold termination solution at the appropriate time point;
(§9) 3.5.8 Centrifuging the sample at 4000 rpm for 20 minutes to precipitate the protein. Transferring 200 μL of supernatant to 100 μL of HPLC water and shaking for 10 minutes. The samples were analyzed by LC/MS/MS;
(§10) Percentage inhibition was plotted for blank control and different concentrations of target compounds by using XL fitting or SigmaPlot and the data were analyzed by non-linear regression. IC50 values were determined by using either 3-parameter or 4-parameter logistic equations.

CYP2C9 = CYP2C9 (Homo sapiens (Human), UniProt P11712); experiment: Human liver microsomal CYP inhibition test, CYP2C9; assay type: in vitro ADME; settings: human liver microsomes 0.2 mg/mL; substrate Diclofenac
Protocol: as §1, §2, §3, §4, §5, §6, §7, §8, §9, §10

CYP2D6 = CYP2D6 (Homo sapiens (Human), UniProt P10635); experiment: Human liver microsomal CYP inhibition test, CYP2D6; assay type: in vitro ADME; settings: human liver microsomes 0.2 mg/mL; substrate Dextromethorphan
Protocol: as §1, §2, §3, §4, §5, §6, §7, §8, §9, §10

Nav1.8 sodium channel = Nav1.8 sodium channel (Homo sapiens (Human), UniProt Q9Y5Y9); experiment: NaV1.8 blocking activity, manual patch clamp; assay type: cell-based; settings: CHO cell line stably expressing Nav1.8
Protocol: The NaV1.8 blocking activity was determined by using a manual patch clamp technique to detect the effect of the subject on the channel currents of stably overexpressed Nav1.8.
CHO cell line stably expressing the Nav1.8 sodium channel was used for the experiments, gene information: sodium channel, voltage-gated, type 8, alpha (SCN10A), cDNA strictly similar to GenBank accession number: NM 006514.
Cells were cultured in HAM'S/F-12 medium containing 10% foetal bovine serum and 10 μg/mL Blasticidin, 200 μg/mL Hygromycin B, and 100 μg/mL Zeocin at 37° C., 5% CO2. For expansion or maintenance cultures, cells were treated with 0.25%-Trypsin-EDTA, washed and centrifuged, and then inoculated in 6-cm cell culture dishes with 2.5×10^5lls per cell culture dish (final volume: 5 mL).
Prior to the patch clamp detection, cells were separated with 0.25%-Trypsin-EDTA and 6.5×10^3 cells were spread onto coverslips and incubated (final volume: 500 μL) in 24-well plates for 18 hours, then the test was performed.
50 mM CsCl, 10 mM NaCl, 10 mM HEPES, 60 mM CsF, 20 mM EGTA, and pH was adjusted to 7.2 with CsOH. • Instrument information is provided in Table 2 below:
Prior to Nav1.8 channel current testing, a blank control solution (DMSO) was diluted into 10 ml of extracellular fluid as the working solution. Positive controls and subjects were first diluted with different doses of DMSO depending on the final concentration before being diluted as working solution using extracellular fluid. 100 nM TTX was added to each working solution to block the TTX-S current. The working solution was sonicated for 20 min before performing the patch clamp test detection.
Patch clamp manipulation: firstly, the capillary glass tube was drawn into a recording electrode using a microelectrode puller, then the electrode filled with intracellular fluid was loaded into the microelectrode holder, and the microelectrode manipulator was manoeuvred under an inverted microscope to immerse the electrode into the extracellular fluid and record the electrode resistance (Rpip). The electrode was then slowly contacted to the cell surface and negative pressure suction was given to form a GQ2 seal. At this time, fast capacitance compensation was performed and negative pressure was continually applied to suction through the cell membrane to form a whole-cell recording pattern. Finally, slow capacitance compensation was performed and experimental parameters such as series resistance (Rs) were recorded. No leakage compensation was given.
Drug administration was initiated when the Nav1.8 current was stabilized for whole-cell recordings, and the next concentration was detected after each drug concentration had acted for approximately 5 min (or until the current was stable). Cell-lined coverslips were placed in the recording bath under an inverted microscope, and the blank control external solution as well as the working solution of the compound to be tested flowed sequentially from low to high concentrations through the recording bath by using gravitational perfusion and thus acted on the cells, and a peristaltic pump was used to exchange fluids during the recording. The current detected by each cell in the compound-free external fluid served as its own control. Each concentration was repeated independently 2-3 times. All electrophysiological experiments were performed at room temperature.
The voltage stimulation scheme for whole-cell patch-clamp recording of Nav1.8 currents was as follows: when a whole-cell seal was formed, the voltage was clamped at −120 mV. The resting state recording of sodium currents was performed by maintaining the voltage for 5s and then depolarizing it to 0 mV, and then administering a depolarizing pulse (TP1) to 0 m V for 50 ms for detecting the resting state sodium currents. For half-inactivated state recording, the voltage was first stepped at different voltages and maintained for 5s and then a depolarizing pulse was given to 0 mV to detect the Vhalf. […]

CYP2C19 = CYP2C19 (Homo sapiens (Human), UniProt P33261); experiment: Human liver microsomal CYP inhibition test, CYP2C19; assay type: in vitro ADME; settings: human liver microsomes 0.2 mg/mL; substrate S-mephenytoin
Protocol: as §1, §2, §4, §5, §6, §7, §8, §9, §10

[1] = human liver microsomes 0.2 mg/mL, substrate Phenacetin, read-out: IC50 (μM) CYP1A2

Chain of CYP2C19 (P33261 whole entry): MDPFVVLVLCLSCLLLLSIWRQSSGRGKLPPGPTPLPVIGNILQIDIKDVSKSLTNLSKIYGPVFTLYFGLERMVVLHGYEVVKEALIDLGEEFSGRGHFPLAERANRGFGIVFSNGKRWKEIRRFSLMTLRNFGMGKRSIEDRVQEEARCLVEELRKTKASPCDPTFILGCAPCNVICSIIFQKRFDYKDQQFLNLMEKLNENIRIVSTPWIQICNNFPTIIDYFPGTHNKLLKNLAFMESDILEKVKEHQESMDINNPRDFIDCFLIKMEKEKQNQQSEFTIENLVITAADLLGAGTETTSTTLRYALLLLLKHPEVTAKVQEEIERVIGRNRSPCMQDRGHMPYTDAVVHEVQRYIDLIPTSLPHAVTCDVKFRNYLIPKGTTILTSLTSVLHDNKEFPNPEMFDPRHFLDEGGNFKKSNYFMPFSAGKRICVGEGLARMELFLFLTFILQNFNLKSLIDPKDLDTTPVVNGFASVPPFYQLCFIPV
Chain of CYP2D6 (P10635 whole entry): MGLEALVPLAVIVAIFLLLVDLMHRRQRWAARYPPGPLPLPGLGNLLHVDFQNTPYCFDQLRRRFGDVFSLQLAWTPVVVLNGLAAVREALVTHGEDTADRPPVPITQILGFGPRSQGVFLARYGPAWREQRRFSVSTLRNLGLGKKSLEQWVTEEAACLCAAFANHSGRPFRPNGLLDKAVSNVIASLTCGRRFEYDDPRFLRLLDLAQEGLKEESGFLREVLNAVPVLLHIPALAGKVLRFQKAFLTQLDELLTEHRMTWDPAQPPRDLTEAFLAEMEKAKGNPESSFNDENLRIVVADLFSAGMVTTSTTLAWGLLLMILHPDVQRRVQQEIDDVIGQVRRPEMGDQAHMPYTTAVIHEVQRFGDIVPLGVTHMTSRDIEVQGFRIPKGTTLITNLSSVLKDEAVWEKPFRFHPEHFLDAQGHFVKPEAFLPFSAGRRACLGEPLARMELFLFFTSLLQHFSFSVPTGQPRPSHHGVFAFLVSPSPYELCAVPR
Chain of Nav1.8 sodium channel (Q9Y5Y9 whole entry): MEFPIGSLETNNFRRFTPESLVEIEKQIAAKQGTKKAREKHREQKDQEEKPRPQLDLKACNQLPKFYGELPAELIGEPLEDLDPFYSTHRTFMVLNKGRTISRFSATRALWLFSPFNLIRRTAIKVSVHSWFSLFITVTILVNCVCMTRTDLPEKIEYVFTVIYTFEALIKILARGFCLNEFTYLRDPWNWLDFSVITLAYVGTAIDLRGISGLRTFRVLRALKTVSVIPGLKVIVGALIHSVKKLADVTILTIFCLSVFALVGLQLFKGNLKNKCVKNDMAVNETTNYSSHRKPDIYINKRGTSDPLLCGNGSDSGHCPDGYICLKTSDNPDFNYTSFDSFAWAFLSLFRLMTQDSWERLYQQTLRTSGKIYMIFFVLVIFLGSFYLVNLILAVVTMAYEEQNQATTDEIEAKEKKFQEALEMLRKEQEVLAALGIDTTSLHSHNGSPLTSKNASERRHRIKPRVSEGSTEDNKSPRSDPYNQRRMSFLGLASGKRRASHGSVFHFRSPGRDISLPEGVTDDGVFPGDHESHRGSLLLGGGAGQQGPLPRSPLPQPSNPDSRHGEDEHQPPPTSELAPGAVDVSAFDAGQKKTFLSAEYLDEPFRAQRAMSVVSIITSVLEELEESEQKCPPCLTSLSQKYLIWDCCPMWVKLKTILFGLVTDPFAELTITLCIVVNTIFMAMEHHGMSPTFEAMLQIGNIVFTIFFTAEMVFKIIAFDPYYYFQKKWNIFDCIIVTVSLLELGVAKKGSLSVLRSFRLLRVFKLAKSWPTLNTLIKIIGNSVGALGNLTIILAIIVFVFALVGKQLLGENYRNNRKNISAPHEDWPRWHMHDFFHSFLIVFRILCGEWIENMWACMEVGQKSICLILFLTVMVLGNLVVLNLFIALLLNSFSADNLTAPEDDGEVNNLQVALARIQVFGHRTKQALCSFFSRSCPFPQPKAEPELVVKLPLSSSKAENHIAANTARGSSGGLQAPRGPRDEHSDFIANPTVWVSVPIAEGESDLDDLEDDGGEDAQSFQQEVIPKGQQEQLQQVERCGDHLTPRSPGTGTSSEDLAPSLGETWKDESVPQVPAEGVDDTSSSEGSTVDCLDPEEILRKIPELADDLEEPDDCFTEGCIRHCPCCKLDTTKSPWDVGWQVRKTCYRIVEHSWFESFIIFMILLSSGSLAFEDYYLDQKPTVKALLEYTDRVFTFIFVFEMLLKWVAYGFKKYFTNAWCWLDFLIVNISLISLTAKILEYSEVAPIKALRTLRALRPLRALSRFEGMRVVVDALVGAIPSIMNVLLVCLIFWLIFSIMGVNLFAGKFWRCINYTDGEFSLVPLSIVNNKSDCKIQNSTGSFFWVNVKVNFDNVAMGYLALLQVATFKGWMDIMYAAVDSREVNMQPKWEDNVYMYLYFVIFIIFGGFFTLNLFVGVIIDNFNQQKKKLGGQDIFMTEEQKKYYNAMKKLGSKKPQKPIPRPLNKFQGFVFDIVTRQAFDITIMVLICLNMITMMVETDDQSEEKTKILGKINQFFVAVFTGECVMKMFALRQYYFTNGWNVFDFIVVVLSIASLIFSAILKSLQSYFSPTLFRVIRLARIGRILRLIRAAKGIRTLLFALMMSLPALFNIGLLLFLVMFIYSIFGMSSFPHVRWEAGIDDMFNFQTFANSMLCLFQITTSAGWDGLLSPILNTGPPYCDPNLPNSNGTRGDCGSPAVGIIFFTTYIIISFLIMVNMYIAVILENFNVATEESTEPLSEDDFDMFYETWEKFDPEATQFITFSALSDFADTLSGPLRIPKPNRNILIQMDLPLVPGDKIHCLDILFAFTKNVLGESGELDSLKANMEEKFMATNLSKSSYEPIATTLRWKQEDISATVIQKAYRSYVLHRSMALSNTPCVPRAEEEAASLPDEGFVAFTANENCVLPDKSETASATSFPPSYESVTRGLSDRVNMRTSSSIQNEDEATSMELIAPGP
Chain of CYP1A2 (P05177 whole entry): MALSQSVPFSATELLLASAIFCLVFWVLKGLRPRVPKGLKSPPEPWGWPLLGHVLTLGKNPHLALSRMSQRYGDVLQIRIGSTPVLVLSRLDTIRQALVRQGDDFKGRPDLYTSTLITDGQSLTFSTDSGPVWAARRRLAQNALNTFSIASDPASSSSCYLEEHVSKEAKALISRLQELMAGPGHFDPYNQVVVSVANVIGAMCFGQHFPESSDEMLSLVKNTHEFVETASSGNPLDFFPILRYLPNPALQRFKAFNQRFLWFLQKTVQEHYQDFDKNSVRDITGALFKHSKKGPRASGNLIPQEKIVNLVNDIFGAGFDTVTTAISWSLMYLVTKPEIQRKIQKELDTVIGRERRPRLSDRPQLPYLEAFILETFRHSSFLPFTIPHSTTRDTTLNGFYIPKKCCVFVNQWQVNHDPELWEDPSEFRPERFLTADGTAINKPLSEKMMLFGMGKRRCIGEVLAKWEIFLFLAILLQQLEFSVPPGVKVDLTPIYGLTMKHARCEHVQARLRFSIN
Chain of CYP2C9 (P11712 whole entry): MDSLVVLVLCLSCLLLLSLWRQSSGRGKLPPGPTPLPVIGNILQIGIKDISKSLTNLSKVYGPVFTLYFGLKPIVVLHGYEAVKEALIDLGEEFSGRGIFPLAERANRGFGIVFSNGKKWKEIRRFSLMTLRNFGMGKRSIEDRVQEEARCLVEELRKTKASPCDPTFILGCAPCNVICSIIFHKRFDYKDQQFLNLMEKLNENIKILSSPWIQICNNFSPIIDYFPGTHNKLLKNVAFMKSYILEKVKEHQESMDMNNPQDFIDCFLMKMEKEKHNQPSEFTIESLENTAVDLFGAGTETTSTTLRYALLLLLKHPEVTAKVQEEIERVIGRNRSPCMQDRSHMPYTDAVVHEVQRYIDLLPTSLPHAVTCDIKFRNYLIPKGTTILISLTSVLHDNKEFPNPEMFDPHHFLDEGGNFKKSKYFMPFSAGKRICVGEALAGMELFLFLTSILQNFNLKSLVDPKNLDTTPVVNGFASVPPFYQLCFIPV

Compound: 4-((2R,3S,4S,5R)-3-(3,4-difluoro-2-(methoxy-d3)phenyl)-4,5-dimethyl-5-(trifluoromethyl) pyrrolidine-2-carboxamido)pyridinamide [Compound 11]
- IC50 (CYP1A2; microsomes): > 50 µM
- IC50 (CYP2C9): 41.4 µM
- IC50 (CYP2D6): > 50 µM
- Blocking rate (%) @3 nM (Nav1.8 sodium channel): 90.26%
- Blocking rate(%) @10 nM (Nav1.8 sodium channel): 97.84%
- IC50 (Nav1.8 sodium channel): 0.00073 µM

Compound: COc1c([C@H]2[C@H](C(=O)Nc3ccc[n+]([O-])c3)N[C@@](C)(C(F)(F)F)[C@H]2C)ccc(F)c1F [Compound 7, 3-((2R,3S,4S,5R)-3-(3,4-difluoro-2-methoxyphenyl)-4,5-dimethyl-5-(trifluoromethyl)pyrrolidine-2-carboxamido)pyridine 1-oxide]
- IC50 (CYP2C19): 2.13 µM
- IC50 (CYP1A2; [1]): > 50 µM
- IC50 (CYP2C9): > 50 µM
- IC50 (CYP2D6): > 50 µM
- Blocking rate (%) @3 nM (Nav1.8 sodium channel): 67.34%
- Blocking rate(%) @10 nM (Nav1.8 sodium channel): 91.89%

Compound: COc1c([C@H]2[C@H](C(=O)Nc3cccc(S(N)(=O)=O)c3)N[C@@](C)(C(F)(F)F)[C@H]2C)ccc(F)c1F [Compound 8, (2R,3S,4S,5R)-3-(3,4-difluoro-2-methoxyphenyl)-4,5-dimethyl-aza-(3-aminosulfonylphenyl)-5-(trifluoromethyl) pyrrolidine-2-carboxamide]
- IC50 (CYP2C19): 29 µM
- IC50 (CYP1A2; microsomes): > 50 µM
- IC50 (CYP2C9): 22.9 µM
- IC50 (CYP2D6): 41.6 µM
- Blocking rate (%) @3 nM (Nav1.8 sodium channel): 93.13%
- Blocking rate(%) @10 nM (Nav1.8 sodium channel): 100.00%

Compound: COc1c([C@H]2[C@H](C(=O)Nc3ccnc(C(N)=O)c3)O[C@@](C)(C(F)(F)F)[C@H]2C)ccc(F)c1F [VX-548, reference compound]
- IC50 (CYP2C19): 3.74 µM
- IC50 (CYP1A2; [1]): > 50 µM
- IC50 (CYP2C9): 17.4 µM
- IC50 (CYP2D6): > 50 µM
